Assay results as given in ChEMBL document CHEMBL1157583, “Novel irreversible epidermal growth factor receptor inhibitors by chemical modulation of the cysteine-trap portion” (J Med Chem, 2010).
Activity calls are given as the source filed them. The calls are words filed in the database; no cut-off is given here.

Columns and labels:
[1] = test system: A-431; test: Antiproliferative activity against human A431 cells assessed as viable cells at 10 uM; format: functional; details: read-out: Activity
[2] = target: T1, Epidermal growth factor receptor (Homo sapiens, UniProt P00533); details: A-431, at 1 µM
Description: Inhibition of EGFR autophosphorylation in human A431 cells at 1 uM after 1 hr by Western blot

[3] = target: T1, Epidermal growth factor receptor; details: A-431, at 1 µM; remark: listed apart in the source
Description: Inhibition of EGFR autophosphorylation in human A431 cells at 1 uM after 8 hrs by Western blot

[4] = target: T1, Epidermal growth factor receptor; test: Inhibition of human recombinant EGFR expressed in insect cells by time-resolved fluorimetry; format: cell-based
[5] = target: T1, Epidermal growth factor receptor; test: Inhibition of EGFR autophosphorylation in human A431 cells after 1 hr by Western blot; format: cell-based, A-431
[6] = target: T1, Epidermal growth factor receptor; test: Inhibition of EGFR autophosphorylation in human A431 cells after 8 hrs by Western blot; format: cell-based, A-431
[7] = test system: NCI-H1975; test: Antiproliferative activity against human NCI-H1975 cells after 72 hrs by MTT assay; format: functional, cell-based; details: NCI-H1975, 72 h
[8] = target: Receptor tyrosine-protein kinase erbB-2 (Homo sapiens) (UniProt P04626); test: Inhibition of ERBB2 autophosphorylation in human NCI-H1975 cells by Western blot; format: cell-based
[9] = test system: NCI-H1975; test: Cytotoxicity against human NCI-H1975 cells assessed as cell death at 5 uM after 72 hrs by propidium iodide/Hoechst staining based fluorescence microscopy; format: functional
[10] = test system: SW-620; test: Cytotoxicity against human SW620 cells after 72 hrs by MTT assay; format: ADME, cell-based; details: SW-620, 72 h
[11] = test system: SW-620; test: Cytotoxicity against human SW620 cells at 10 uM after 72 hrs by MTT assay; format: cell-based; details: sw-620, 72 h
[12] = test system: NCI-H1975; test: Induction of apoptosis in human NCI-H1975 cells assessed as activation of caspase-3 at 5 uM after 2 days by Western blot; format: functional, cell-based

T1 sequence (P00533 whole entry): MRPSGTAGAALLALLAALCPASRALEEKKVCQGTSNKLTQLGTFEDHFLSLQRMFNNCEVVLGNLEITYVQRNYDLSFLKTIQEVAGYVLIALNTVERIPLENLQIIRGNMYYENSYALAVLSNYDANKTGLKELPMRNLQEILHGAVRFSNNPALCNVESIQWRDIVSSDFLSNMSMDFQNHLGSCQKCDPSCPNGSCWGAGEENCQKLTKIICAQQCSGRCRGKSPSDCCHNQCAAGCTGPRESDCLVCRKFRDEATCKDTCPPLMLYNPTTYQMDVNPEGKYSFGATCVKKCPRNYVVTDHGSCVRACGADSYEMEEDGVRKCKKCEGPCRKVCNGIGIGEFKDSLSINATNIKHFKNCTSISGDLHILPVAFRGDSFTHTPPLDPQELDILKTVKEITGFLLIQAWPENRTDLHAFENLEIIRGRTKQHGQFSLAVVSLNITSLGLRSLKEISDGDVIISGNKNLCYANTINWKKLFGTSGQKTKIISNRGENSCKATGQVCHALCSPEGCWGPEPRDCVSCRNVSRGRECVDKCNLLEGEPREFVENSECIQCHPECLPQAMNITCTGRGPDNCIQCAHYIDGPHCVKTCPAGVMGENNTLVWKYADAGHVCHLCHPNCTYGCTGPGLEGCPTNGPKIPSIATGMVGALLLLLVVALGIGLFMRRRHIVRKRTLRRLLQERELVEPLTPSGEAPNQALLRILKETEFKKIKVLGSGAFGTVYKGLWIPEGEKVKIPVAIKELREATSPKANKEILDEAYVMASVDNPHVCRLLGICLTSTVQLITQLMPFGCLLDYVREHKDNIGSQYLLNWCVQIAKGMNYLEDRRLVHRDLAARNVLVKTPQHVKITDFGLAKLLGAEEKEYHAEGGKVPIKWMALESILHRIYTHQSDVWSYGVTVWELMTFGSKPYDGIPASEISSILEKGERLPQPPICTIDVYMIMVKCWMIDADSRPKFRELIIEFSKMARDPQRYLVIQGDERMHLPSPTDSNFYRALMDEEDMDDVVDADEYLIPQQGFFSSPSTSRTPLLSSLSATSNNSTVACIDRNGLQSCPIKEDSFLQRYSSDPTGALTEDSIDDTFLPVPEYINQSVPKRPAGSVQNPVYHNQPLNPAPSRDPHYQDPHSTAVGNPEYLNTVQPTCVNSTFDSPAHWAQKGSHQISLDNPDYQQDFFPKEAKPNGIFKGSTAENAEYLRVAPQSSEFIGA
Receptor tyrosine-protein kinase erbB-2 (Homo sapiens), sequence (P04626 whole entry): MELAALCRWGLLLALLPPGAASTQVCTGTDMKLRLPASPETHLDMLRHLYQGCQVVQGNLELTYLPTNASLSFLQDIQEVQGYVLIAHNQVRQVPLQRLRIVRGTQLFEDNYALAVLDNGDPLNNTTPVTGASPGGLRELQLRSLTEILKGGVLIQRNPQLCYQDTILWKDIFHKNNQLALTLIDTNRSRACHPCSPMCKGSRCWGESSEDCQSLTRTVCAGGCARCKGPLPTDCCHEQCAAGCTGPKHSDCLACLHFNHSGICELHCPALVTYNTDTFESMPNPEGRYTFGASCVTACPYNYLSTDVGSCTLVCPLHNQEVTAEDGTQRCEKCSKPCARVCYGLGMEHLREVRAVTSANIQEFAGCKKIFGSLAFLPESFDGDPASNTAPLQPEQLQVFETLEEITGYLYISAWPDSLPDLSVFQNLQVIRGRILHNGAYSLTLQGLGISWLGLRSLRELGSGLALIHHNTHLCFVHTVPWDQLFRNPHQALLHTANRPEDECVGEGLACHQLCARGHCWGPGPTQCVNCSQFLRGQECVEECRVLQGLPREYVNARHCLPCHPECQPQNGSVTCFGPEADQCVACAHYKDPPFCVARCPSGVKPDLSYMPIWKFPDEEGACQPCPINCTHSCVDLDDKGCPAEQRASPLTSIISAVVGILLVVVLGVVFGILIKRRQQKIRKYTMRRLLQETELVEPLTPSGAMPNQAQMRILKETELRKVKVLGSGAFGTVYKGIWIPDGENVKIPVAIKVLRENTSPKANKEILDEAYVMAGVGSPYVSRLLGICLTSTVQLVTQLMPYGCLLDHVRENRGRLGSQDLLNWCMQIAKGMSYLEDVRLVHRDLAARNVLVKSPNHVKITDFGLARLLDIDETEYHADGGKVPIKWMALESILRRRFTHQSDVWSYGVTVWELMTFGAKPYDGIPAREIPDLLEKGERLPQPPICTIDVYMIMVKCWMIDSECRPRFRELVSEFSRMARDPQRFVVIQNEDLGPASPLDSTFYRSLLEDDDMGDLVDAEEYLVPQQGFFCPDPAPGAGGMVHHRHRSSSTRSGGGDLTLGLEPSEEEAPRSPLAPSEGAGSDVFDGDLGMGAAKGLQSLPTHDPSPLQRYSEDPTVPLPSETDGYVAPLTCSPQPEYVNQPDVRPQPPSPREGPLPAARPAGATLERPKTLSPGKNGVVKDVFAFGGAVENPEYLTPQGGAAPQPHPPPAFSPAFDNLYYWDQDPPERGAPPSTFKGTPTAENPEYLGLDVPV

Compound	inhibition [2] [%]	inhibition [3] [%]	IC50 [4] [nM]	also measured
CCOC(=O)[C@@H]1O[C@H]1C(=O)Nc1ccc2ccccc2c1	0	0		viability at 10 µM [1]: < 10%
O=C(Nc1ccc2ncnc(Nc3cccc(Br)c3)c2c1)[C@@H]1O[C@H]1CN1CCCCC1	99.4	96.3	1.24	IC50 [5]: 7 nM; IC50 [6]: 44 nM; IC50 [7]: 1720 nM; inhibition [8]: Dose-dependent effect; Activity [9]: 25%; IC50 [10]: > 10000 nM; Activity [11]: < 50%
O=C(CNC(=O)Oc1ccccc1)Nc1ccc2ncnc(Nc3cccc(Br)c3)c2c1	95.2	79.9	0.37	
CC(C)c1nsc(C(=O)Nc2ccc3ncnc(Nc4cccc(Br)c4)c3c2)n1	82.3	66.9	129	
O=C(COc1ccc(F)cc1)Nc1ccc2ncnc(Nc3cccc(Br)c3)c2c1	97.4	77.6	8.43	IC50 [5]: 76 nM; IC50 [6]: 291 nM; IC50 [7]: 7820 nM
O=C(Cn1sc2ccccc2c1=O)Nc1ccc2ncnc(Nc3cccc(Br)c3)c2c1	69	30.7	0.85	
COc1cc2ncnc(Nc3ccc(F)c(Cl)c3)c2cc1OCCCN1CCOCC1				Activity [12]: Active
O=C(COc1ccccc1)Nc1ccc2ccccc2c1	0	0		viability at 10 µM [1]: < 10%
Nc1ccc2ncnc(Nc3cccc(Br)c3)c2c1	98.5	0		
C=CC(=O)Nc1ccc2ncnc(Nc3cccc(Br)c3)c2c1				IC50 [10]: 8230 nM
